Entries after “also recorded” stand apart in the source; their conditions may differ. Read-outs that look alike come from different tables or passages of the source.
Assays:
OccJ WT [1] = molecular target: T1, OccJ WT (Agrobacterium tumefaciens, UniProt P0A4F8); test: OccJ WT ligand binding, isothermal titration microcalorimetry; settings: ITC, 20 °C
T1 construct: The mature PBP OccJ (256 aa without the signal peptide) expression plasmid was obtained by cloning the occJ gene lacking the first twenty residues; hexahistidine (C); made in house; host or cells: E. coli BL21
Method: (§1) Isothermal titration microcalorimetry experiments were performed with an ITC200 isothermal titration calorimeter from MicroCal (GE Healthcare). The experiments were carried out at 20 °C. Protein concentration in the microcalorimeter cell (0.2 mL) varied from 20 to 150 µM. Nineteen injections of 2 µL of ligand solution (amino acids, opines and octopine derivatives) at concentration ranging from 240 µM to 1.5 mM were performed at intervals of 180 s while stirring at 500 rpm. The experimental data were fitted to theoretical titration curves with software supplied by MicroCal (ORIGIN®). This software uses the relationship between the heat generated by each injection and ΔH (enthalpy change in kcal/mol), Ka (the association binding constant in M^−1), n (the number of binding sites), total protein concentration and free and total ligand concentrations.

OccJ WT [2] = molecular target: T1, OccJ WT; test: biochemical; assay type: binding
Method: (§2) Binding of ligands to OccJ, NocT, LAO and protein mutants was monitored by autofluorescence by exciting the protein at a wavelength of 295 nm and monitoring the quenching of fluorescence emission of tryptophans at 335 nm. All experiments were performed at 20 °C in 96 wells plates (1/2 Area Plate-96F, Perkin Elmer) using Tecan Infinite M1000 reader (Tecan), in 50 mM Tris-HCl pH 8.0, 150 mM NaCl buffer with a fixed amount of proteins (1 µM) and increasing concentrations of ligand. […] The data were analysed using Origin® 7 software and fitted to the equation f = ΔFluorescencemax * abs(x)/(K D + abs(x)).

NocT WT [3] = molecular target: T2, NocT WT (Agrobacterium fabrum, UniProt P35120); assay type: binding, Agrobacterium tumefaciens; settings: fluorescence titration; 20 °C; pH 8.0; octopine family members and analogues; read-out: Kd (F)
T2 construct: Cloning of mature OccJ, NocT-G97S, OccJ-S91G, OccJ-N202D, LAO and LAO-Q122A; made in house
Method: as §2

NocT WT [4] = molecular target: T2, NocT WT; assay type: binding, Agrobacterium tumefaciens; settings: ITC, 20 °C
Method: as §1

NocT WT [5] = molecular target: T2, NocT WT; settings: cited from earlier work; for K D, amino acids: F/ITC, ref [6]
OccJ S91G = molecular target: T3, OccJ S91G (Agrobacterium tumefaciens, UniProt P0A4F8, S91G); test: OccJ S91G ligand binding, fluorescence titration; settings: intrinsic protein fluorescence titration; 20 °C; pH 8.0
T3 construct: The mature LAO expression plasmid, LAO-Q122A, OccJ-S91G and OccJ-N202D were chemically synthesized; pET-28a); host or cells: E. coli BL21
Method: as §2

NocT G97S = molecular target: T4, NocT G97S (Agrobacterium fabrum, UniProt P35120, G97S); assay type: binding, Agrobacterium tumefaciens; settings: intrinsic protein fluorescence titration; 20 °C; pH 8.0
T4 construct: Cloning of mature OccJ, NocT-G97S, OccJ-S91G, OccJ-N202D, LAO and LAO-Q122A; made in house; host or cells: E. coli BL21

LAO = molecular target: LAO; set-up: method as in PMID 1400387; settings: ref [20]; cited from earlier work
LAO Q122A = molecular target: T5, LAO Q122A (Salmonella typhimurium, UniProt P02911, Q144A); test: LAO Q122A ligand binding, ITC; set-up: species or system Salmonella enterica
T5 construct: The mature LAO expression plasmid, LAO-Q122A, OccJ-S91G and OccJ-N202D were chemically synthesized; pET-28a); host or cells: E. coli BL21
Method: as §1

LAO WT = molecular target: T6, LAO WT (Salmonella typhimurium, UniProt P02911); test: biochemical; assay type: binding, Salmonella enterica
T6 construct: The mature LAO expression plasmid, LAO-Q122A, OccJ-S91G and OccJ-N202D were chemically synthesized; pET-28a); host or cells: E. coli BL21
Method: as §1

OccJ N202D = molecular target: T7, OccJ N202D (Agrobacterium tumefaciens, UniProt P0A4F8, N202D); assay type: binding; settings: ITC, 20 °C
T7 construct: The mature LAO expression plasmid, LAO-Q122A, OccJ-S91G and OccJ-N202D were chemically synthesized; pET-28a); host or cells: E. coli BL21
Method: as §1

[6] = fluorescence titration, read-out: apparent dissociation constant K D
[7] = intrinsic protein fluorescence titration, 20 °C, 50 mM Tris-HCl pH 8.0, 150 mM NaCl, 1 µM protein, read-out: K D (F)
[8] = intrinsic protein fluorescence titration, 20 °C, 50 mM Tris-HCl pH 8.0, 150 mM NaCl, 1 µM protein

T7 sequence (P0A4F8 21-276 N202D): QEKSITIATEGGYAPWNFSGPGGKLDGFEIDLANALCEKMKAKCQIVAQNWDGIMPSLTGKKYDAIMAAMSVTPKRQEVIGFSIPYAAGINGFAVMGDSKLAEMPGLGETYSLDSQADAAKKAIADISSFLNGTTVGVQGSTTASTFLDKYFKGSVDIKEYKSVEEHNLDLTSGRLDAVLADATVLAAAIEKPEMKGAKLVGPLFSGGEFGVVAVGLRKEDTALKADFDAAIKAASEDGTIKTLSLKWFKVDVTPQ
T2 sequence (P35120 26-283): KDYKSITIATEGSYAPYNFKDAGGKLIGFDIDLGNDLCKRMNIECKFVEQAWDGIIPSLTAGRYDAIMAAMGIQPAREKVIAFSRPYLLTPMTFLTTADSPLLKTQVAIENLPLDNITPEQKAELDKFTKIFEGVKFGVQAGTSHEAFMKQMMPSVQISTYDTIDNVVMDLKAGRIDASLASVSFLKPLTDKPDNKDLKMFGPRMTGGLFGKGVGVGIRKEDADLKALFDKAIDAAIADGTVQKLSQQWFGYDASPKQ
T3 sequence (P0A4F8 21-276 S91G): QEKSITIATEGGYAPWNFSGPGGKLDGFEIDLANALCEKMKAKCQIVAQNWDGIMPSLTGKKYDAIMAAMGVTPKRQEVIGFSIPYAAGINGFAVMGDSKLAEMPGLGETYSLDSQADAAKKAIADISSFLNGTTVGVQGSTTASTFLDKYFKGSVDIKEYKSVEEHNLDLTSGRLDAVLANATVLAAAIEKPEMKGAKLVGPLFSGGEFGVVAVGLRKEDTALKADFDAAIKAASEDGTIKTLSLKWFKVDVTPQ
T6 sequence (P02911 23-260): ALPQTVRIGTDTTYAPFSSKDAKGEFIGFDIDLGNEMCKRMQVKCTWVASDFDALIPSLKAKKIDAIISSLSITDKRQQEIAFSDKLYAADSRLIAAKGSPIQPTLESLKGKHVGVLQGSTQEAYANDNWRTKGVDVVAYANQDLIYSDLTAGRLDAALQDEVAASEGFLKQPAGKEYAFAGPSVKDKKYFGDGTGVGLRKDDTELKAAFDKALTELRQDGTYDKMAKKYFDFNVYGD
T5 sequence (P02911 23-260 Q144A): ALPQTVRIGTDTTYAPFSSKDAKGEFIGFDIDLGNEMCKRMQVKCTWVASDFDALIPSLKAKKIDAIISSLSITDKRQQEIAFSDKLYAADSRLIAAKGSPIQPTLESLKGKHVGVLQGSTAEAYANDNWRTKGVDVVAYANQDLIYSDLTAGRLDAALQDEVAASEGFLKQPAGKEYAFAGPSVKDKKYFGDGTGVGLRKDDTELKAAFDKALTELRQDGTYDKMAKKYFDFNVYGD
T1 sequence (P0A4F8 21-276): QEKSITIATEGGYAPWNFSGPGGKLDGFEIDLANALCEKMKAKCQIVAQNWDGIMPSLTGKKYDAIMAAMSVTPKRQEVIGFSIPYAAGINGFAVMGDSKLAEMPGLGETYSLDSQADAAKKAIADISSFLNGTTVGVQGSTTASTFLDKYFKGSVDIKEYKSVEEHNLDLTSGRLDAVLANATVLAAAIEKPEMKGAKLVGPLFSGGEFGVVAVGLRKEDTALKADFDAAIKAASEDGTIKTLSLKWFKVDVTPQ
T4 sequence (P35120 26-283 G97S): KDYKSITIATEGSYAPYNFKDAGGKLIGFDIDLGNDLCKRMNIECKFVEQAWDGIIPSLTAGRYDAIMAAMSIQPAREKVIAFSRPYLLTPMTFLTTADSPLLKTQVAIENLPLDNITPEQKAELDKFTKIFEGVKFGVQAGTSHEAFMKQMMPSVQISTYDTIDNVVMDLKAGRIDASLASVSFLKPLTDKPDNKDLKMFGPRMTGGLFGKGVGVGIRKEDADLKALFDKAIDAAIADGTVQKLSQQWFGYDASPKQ

| Compound | Enthalpy (ΔH) (OccJ WT [1]) [kcal/mol] | Entropic contribution (-TΔS) (OccJ WT [1]) [kcal/mol] | Entropy (ΔS) (OccJ WT [1]) [cal/mol/deg] | Free enthalpy (ΔG) (OccJ WT [1]) [kcal/mol] | Kd (OccJ WT [1]) [µM] | Kd (OccJ WT [2]; [7]) [µM] | Kd (NocT WT [3]) [µM] | Enthalpy (ΔH) (NocT WT [4]) [kcal/mol] | Entropic contribution (-TΔS) (NocT WT [4]) [kcal/mol] | Entropy (ΔS) (NocT WT [4]) [cal/mol/deg] | Free enthalpy (ΔG) (NocT WT [4]) [kcal/mol] | Kd (NocT WT [4]) [µM] | K D (F) (OccJ S91G) | also measured |
| --- | --- | --- | --- | --- | --- | --- | --- | --- | --- | --- | --- | --- | --- | --- |
| C[C@@H](N[C@@H](CCCN)C(=O)O)C(=O)O [octopinic acid] | -9.547 | -0.41 | 1.40 | -9.957 | 0.038 ± 0.007 | 0.017 ± 0.003 | 1.8 ± 0.3 | -3.658 | -3.517 | 12.0 | -7.175 | 4.4 ± 0.4 | – | Kd (OccJ WT [2]; [6]): 0.017 ± 0.003 µM |
| NC(N)=NCCC[C@H](NCC(=O)O)C(=O)O [noroctopine] | -4.804 | -4.367 | 14.8 | -9.171 | 0.15 ± 0.01 | 0.19 ± 0.05 | 33.4 ± 2.7 | 0.872 | -6.39 | 21.8 | -5.518 | 78 ± 9 | – | fold better affinity of OccJ compared with arginine or ornithine alone (OccJ WT [2]; opine analogue versus its amino acid): 10 fold |
| NC(N)=NCCC[C@H](N[C@H](CCC(=O)O)C(=O)O)C(=O)O [nopaline] | – | – | – | – | – | – | – | – | – | – | – | – | not a ligand | K D (F) (OccJ WT [2]; [8]): No fluorescence intensity change was detected; also recorded: no interaction; Kd (NocT WT [5]; fluorescence titration, octopine and nopaline, ref [6],[14], read-out: K D (F)): 3.7 ± 0.6 µM; K D (F) (NocT G97S): abolished the nopaline binding ability |
| C[C@@H](N[C@@H](CCCCN)C(=O)O)C(=O)O [lysopine] | -4.832 | -4.455 | 15.2 | -9.287 | 0.11 ± 0.02 | 0.14 ± 0.01 | 11.2 ± 3.5 | – | – | – | – | – | – | Kd (OccJ WT [2]; [6]): 0.14 ± 0.01 µM |
| NCCC[C@H](NCC(=O)O)C(=O)O [noroctopinic acid] | -7.202 | -1.934 | 6.60 | -9.136 | 0.15 ± 0.01 | – | 19.3 ± 1.37 | 0.62 | -6.83 | 23.3 | -6.21 | 23 ± 5 | – | – |
| N[C@@H](Cc1c[nH]cn1)C(=O)O [histidine] | – | – | – | – | – | – | – | – | – | – | – | – | – | K D (F) (OccJ WT [2]; [8]): No fluorescence intensity change was detected |
| CC(N[C@@H](Cc1cnc[nH]1)C(=O)O)C(=O)O (some centres unmarked) [histopine] | -0.854 | -3.81 | 13 | -4.664 | 326 | 33.1 ± 3.5 | 84.4 ± 6.7 | – | – | – | – | – | – | K D (F) (OccJ WT [2]; [8]): micromolar range |
| NCCC[C@H](N)C(=O)O [ornithine] | -1.102 | -4.778 | 16.3 | -5.88 | 40.5 | – | – | – | – | – | – | – | can no longer bind | Kd (OccJ WT [2]): 31.2 ± 3.5 µM; previous reported affinity (LAO): nanomolar range |
| homo-octopine | -7.611 | -0.806 | 2.75 | -8.417 | – | – | – | -3.832 | -2.222 | 7.58 | -6.054 | – | – | – |
| NCCCC[C@H](N)C(=O)O [L-lysine] | -4.92 | -0.645 | 2.20 | -5.565 | 71 | – | – | – | – | – | – | – | can no longer bind | Kd (OccJ WT [2]): 7.5 ± 2.1 µM; previous reported affinity (LAO): nanomolar range; K D, amino acids (NocT WT [5]): does not interact |
| N=C(N)NCCC[C@H](N)C(=O)O [L-arginine] | -4.208 | -1.755 | 5.99 | -5.964 | 35.7 | – | – | – | – | – | – | – | can no longer bind | Kd (OccJ WT [2]): 7.2 ± 1 µM; Kd (LAO Q122A): 0.12 ± 0.01 µM; fold lower affinity of LAO-Q122A compared with WT (LAO Q122A; ITC): 5 fold; Enthalpy (ΔH) (LAO Q122A; ITC, 20 °C): -6.853 kcal/mol; Entropic contribution (-TΔS) (LAO Q122A; ITC, 20 °C): -2.433 kcal/mol; Entropy (ΔS) (LAO Q122A; ITC, 20 °C): 8.3 cal/mol/deg; Free enthalpy (ΔG) (LAO Q122A; ITC, 20 °C): -9.286 kcal/mol; Kd (LAO WT): 0.024 ± 0.002 µM; Enthalpy (ΔH) (LAO WT; ITC, 20 °C): -10.91 kcal/mol; Entropic contribution (-TΔS) (LAO WT; ITC, 20 °C): 0.703 kcal/mol; Entropy (ΔS) (LAO WT; ITC, 20 °C): -2.4 cal/mol/deg; Free enthalpy (ΔG) (LAO WT; ITC, 20 °C): -10.207 kcal/mol; previous reported affinity (LAO): nanomolar range; K D, amino acids (NocT WT [5]): does not interact; Enthalpy (ΔH) (OccJ N202D): -0.632 kcal/mol; Entropic contribution (-TΔS) (OccJ N202D): -5.696 kcal/mol; Entropy (ΔS) (OccJ N202D): 19.3 cal/mol/deg; Free enthalpy (ΔG) (OccJ N202D): -6.328 kcal/mol |
| N=C(N)NCCCC[C@H](NCC(=O)O)C(=O)O [homo-noroctopine] | -4.115 | -2.207 | 7.53 | -6.322 | 19.3 ± 1.4 | 4.63 ± 0.42 | 21.3 ± 2.1 | -1.195 | -4.309 | 14.7 | -5.504 | 79 ± 14 | – | – |

Reference: publication PMC5740067 (Scientific Reports, 2017)
